From BigSolDB 2.1

Settings: in water

O=C(O)CCCC(=O)O
Settings | solubility (mole fraction)
288.05 K | 0.125
292.95 K | 0.151
297.85 K | 0.176
303.25 K | 0.204
308.05 K | 0.232
312.95 K | 0.26
318.05 K | 0.297
322.25 K | 0.328
326.75 K | 0.361
330.85 K | 0.4
